From US20230057984A1, “NORMALIZATION OF CULTURE OF CORNEAL ENDOTHELIAL CELLS” (KYOTO PREFECTURAL PUBLIC UNIVERSITY CORPORATION, priority 2011, published 2023)

Legend:
Type in all cases: cell-based
[1] = tested on: Cynomolgus monkey corneal endothelial cells; assay: PCR of Na+/K+-ATPase and ZO-1 mRNA in monkey corneal endothelial cells (Example 3); conditions: monkey CEC treated with SB431542 vs fibroblast phenotype control
Method: Method of culturing and the like was conducted in a similar manner as the Comparative Examples. In particular, materials similar to those in Example 2 were used. • SB431542: this was obtained from TOCRIS (catalog number: 1614). • Antibodies to Na^+/K^+-ATPase: those obtained from MILLIPORE (catalog number: 05-369) were used. • Antibodies to ZO-1: mice, those obtained from INVITROGEN (catalog number: 339100) were used; and rabbits, those obtained from ZYMED LABORATORIES (catalog number: 61-7300) were used. • Antibodies to GAPDH: those obtained from ABCAM (catalog number: ab36840) were used. • Immunostaining and the like: cells cultured in a similar manner to Example 2 were fixed and immunostaining was performed on Na^+/K^+-ATPase and ZO-1, followed by taking an image using a fluorescence microscope. • Western blot method: similar to Example 1, a Western blot method was performed on the Na^+/K^+-ATPase, ZO-1, and GAPDH. • Realtime PCR method: in addition, PCR was performed for Na^+/K^+-ATPase, ZO-1, and GAPDH in the following method. The primers were purchased from an oligonucleotide synthesizing company, INVITROGEN, and desalted primer were used. […] Amplified DNA fragments were electrophoresed in a 1.5% agarose gel, and were detected by ethidium bromide staining.

[2] = tested on: Human corneal endothelial cells; assay: ELISA of type 1 collagen in culture supernatant of HCEC; conditions: HCEC with vs without SB431542, n=5, P<0.05
Method: Corneal endothelial cells were mechanically exfoliated together with basement membranes from research corneas purchased from the Seattle bank, followed by exfoliating from the basement membranes using collagenase for collection, and then primary culturing. […] The collected human corneal endothelial cells were divided into two, and one group of them was cultured with the base culture medium as a control, and the other group of them was cultured with a base culture medium with SB431542 (TOCRIS, catalog number: 1614) added thereto such that the final concentration would be 1 μmol/L. • Enzyme-linked immunosorbent assay (ELISA): type 1 collagen in a culture supernatant of HCEC was assayed by using a ELISA kits for Collagen Type I Alpha 2 (COL1a2) (Uscn Life Science Inc., Wuhan, China) in accordance with the instruction manual of the manufacturer. Culture supernatants derived from HCEC, cultured together with SB431542 or without SB431542, were used for respective groups (n=5).

[3] = tested on: Human corneal endothelial cells; assay: Quantitative PCR of collagen type 1 and fibronectin in HCEC; conditions: SB431542 1 μM, normalized with GAPDH, relative to control
Method: Amplified DNA fragments were electrophoresed with 1.5% agarose gel (Nacalai Tesque, catalog number:01149-76), and detected by staining with ethidium bromide (Nacalai Tesque, catalog number: 14603-51). • Quantitative PCR was performed using the following TaqMan (registered trademark) (Invitrogen) primers. collagen type 1: Hs00164004_m1; fibronectin: Hs01549976_m1; GAPDH: Hs00266705_g1. The PCR was performed using a StepOne™ (Applied Biosystems) real-time PCR system. The GAPDH was used as an internal standard.

NC(=O)c1ccc(-c2nc(-c3ccc4c(c3)OCO4)c(-c3ccccn3)[nH]2)cc1 [SB431542]
expression of Na+/K+-ATPase and ZO-1, mRNA level (PCR) [1]: strongly enhanced | secretion of collagen type 1 to the cell supernatant (ELISA) [2]: significantly down-regulated | expression of collagen type 1 at mRNA level (quantitative PCR) [3]: significantly decreased | expression of fibronectin at mRNA level (quantitative PCR) [3]: significantly decreased
